Measurements: patent US20050197350A1, “Novel quinoline, tetrahydroquinazoline, and pyrimidine derivatives and methods of treatment related to the use thereof” (TAISHO PHARMACEUTICAL CO., LTD., priority 2003, published 2005)

system: MCH receptors; assay: MCH receptor activity class (method not given); details: not given

| class | Structure (SMILES) |
| --- | --- |
| 1 | COc1cccc(OCC(=O)N[C@H]2CC[C@@H](Nc3cc(C)c4ccccc4n3)CC2)c1 [Example 2554, 2-(3-methoxyphenoxy)-N-{cis-4-[(4-methylquinolin-2-yl)amino]cyclohexyl}acetamide] |

same assay, conditions: MCH receptor activity class 1-3 (percent of control at 10^-7 M or IC50)

| Structure (SMILES) | class |
| --- | --- |
| CN(C)c1ccnc(N[C@H]2CC[C@@H](CNC(=O)Nc3cc(F)cc(F)c3)CC2)n1 [compound 2449] | 1 (Class 1: The value of percent of control at 10^−7 M was less than 40% or the value of IC50 was less than 50 nM.) |
| COC(=O)c1sccc1NC(=S)N[C@H]1CC[C@@H](Nc2nccc(N(C)C)n2)CC1 [compound 2357] | 3 (Class 3 The value of percent of control at 10^−7 M was more than 60% or the value of IC50 was more than 200 nM.) |

same assay, conditions: MCH receptor; class by percent of control at 10^-7 M or IC50

| Structure (SMILES) | class |
| --- | --- |
| CN(C)c1cc(N[C@H]2CC[C@@H](CNC(=O)c3cccc(C(F)(F)F)c3F)CC2)nc2ccccc12 [compound 191] | 3 (Class 3 The value of percent of control at 10^−7 M was more than 60% or the value of IC50 was more than 200 nM.) |
| CCCCOC(=O)c1ccccc1NC(=O)N[C@H]1CC[C@@H](Nc2nc3c(c(N(C)C)n2)CCCC3)CC1 [compound 1910] | 3 (Class 3 The value of percent of control at 10^−7 M was more than 60% or the value of IC50 was more than 200 nM.) |
| COc1ccc(CC(=O)NC[C@H]2CC[C@@H](Nc3cc(N(C)C)c4ccccc4n3)CC2)cc1 [compound 196] | 3 (Class 3 The value of percent of control at 10^−7 M was more than 60% or the value of IC50 was more than 200 nM.) |

same assay, conditions: activity class 1-3: percent of control at 10^-7 M or IC50

| Structure (SMILES) | class |
| --- | --- |
| CN(C)c1nc(N[C@H]2CC[C@@H](NC(=O)Nc3ccc(Br)cc3Br)CC2)nc2c1CCCC2 [compound 1709] | 2 (Class 2: The value of percent of control at 10^−7 M was from 40% to 60% or the value of IC′50 was from 50 nM to 200 nM.) |
| CN(C)c1nc(N[C@H]2CC[C@@H](CNC(=O)OCc3ccccc3Cl)CC2)nc2c1CCCC2 [compound 1616] | 3 (Class 3 The value of percent of control at 10^−7 M was more than 60% or the value of IC50 was more than 200 nM.) |
| CN(C)c1nc(N[C@H]2CC[C@@H](NC(=O)Nc3ccccc3Br)CC2)nc2c1CCCC2 [compound 1693] | 3 (Class 3 The value of percent of control at 10^−7 M was more than 60% or the value of IC50 was more than 200 nM.) |
| Cc1cccc(C(C)C)c1NC(=O)N[C@H]1CC[C@@H](Nc2nc3c(c(N(C)C)n2)CCCC3)CC1 [compound 1679] | 2 (Class 2: The value of percent of control at 10^−7 M was from 40% to 60% or the value of IC′50 was from 50 nM to 200 nM.) |

same assay, conditions: activity class per percent of control at 10^-7 M or IC50

| Structure (SMILES) | class |
| --- | --- |
| CN(C)c1nc(N[C@H]2CC[C@@H](NC(=O)c3ccc([N+](=O)[O-])cc3F)CC2)nc2c1CCCC2 [compound 1049] | 3 (Class 3 The value of percent of control at 10^−7 M was more than 60% or the value of IC50 was more than 200 nM.) |
| Cc1cc(CN[C@H]2CC[C@@H](Nc3cc(N(C)C)c4ccccc4n3)CC2)cc(C)c1O [compound 1103] | 3 (Class 3 The value of percent of control at 10^−7 M was more than 60% or the value of IC50 was more than 200 nM.) |

same assay, conditions: class 1-3 by percent of control at 10^-7 M or IC50

| Structure (SMILES) | class |
| --- | --- |
| CN(C)c1ccnc(N[C@H]2CC[C@@H](CNC(=O)c3c(F)cccc3C(F)(F)F)CC2)n1 [compound 448] | 3 (Class 3 The value of percent of control at 10^−7 M was more than 60% or the value of IC50 was more than 200 nM.) |
| CN(C)c1nc(N[C@H]2CC[C@@H](NC(=O)c3cccnc3Oc3ccccc3)CC2)nc2c1CCCC2 [compound 571] | 2 (Class 2: The value of percent of control at 10^−7 M was from 40% to 60% or the value of IC′50 was from 50 nM to 200 nM.) |
| CN(C)c1nc(N[C@H]2CC[C@@H](NC(=O)COc3ccc(Cl)cc3)CC2)nc2c1CCCC2 [compound 532] | 2 (Class 2: The value of percent of control at 10^−7 M was from 40% to 60% or the value of IC′50 was from 50 nM to 200 nM.) |

same assay, conditions: class by percent of control at 10^-7 M or IC50

| Structure (SMILES) | class |
| --- | --- |
| Cc1cccc(NC(=O)N[C@H]2CC[C@@H](Nc3nc4c(c(N(C)C)n3)CCCC4)CC2)c1 [compound 1840] | 3 (Class 3 The value of percent of control at 10^−7 M was more than 60% or the value of IC50 was more than 200 nM.) |
| CN(C)c1cc(N[C@H]2CC[C@@H](NC(=O)Cc3c(-c4ccccc4)[nH]c4ccccc34)CC2)nc2ccccc12 [compound 729, N-(cis-4-{[4-(dimethylamino)quinolin-2-yl]amino}cyclohexyl)-2-(2-phenyl-1H-indol-3-yl)acetamide] | 2 (Class 2: The value of percent of control at 10^−7 M was from 40% to 60% or the value of IC′50 was from 50 nM to 200 nM.) |
| CN(C)c1cc(N[C@H]2CC[C@@H](CNCc3csc4ccccc34)CC2)nc2ccccc12 [compound 1178] | 3 (Class 3 The value of percent of control at 10^−7 M was more than 60% or the value of IC50 was more than 200 nM.) |
| CN(C)c1cc(N[C@H]2CC[C@@H](NC(=O)CCC(=O)c3cccs3)CC2)nc2ccccc12 [compound 745] | 3 (Class 3 The value of percent of control at 10^−7 M was more than 60% or the value of IC50 was more than 200 nM.) |
| CN(C)c1ccnc(N[C@H]2CC[C@@H](NC(=S)Nc3ccc(N(C)C)c4ccccc34)CC2)n1 [compound 2267] | 2 (Class 2: The value of percent of control at 10^−7 M was from 40% to 60% or the value of IC′50 was from 50 nM to 200 nM.) |
| CN(C)c1ccnc(N[C@H]2CC[C@@H](NC(=O)C3CCCCC3)CC2)n1 [compound 315] | 3 (Class 3 The value of percent of control at 10^−7 M was more than 60% or the value of IC50 was more than 200 nM.) |
| CN(C)c1nc(N[C@H]2CC[C@@H](CNC(=O)c3c(F)ccc(F)c3Cl)CC2)nc2c1CCCC2 [compound 671] | 3 (Class 3 The value of percent of control at 10^−7 M was more than 60% or the value of IC50 was more than 200 nM.) |
| Cc1ccnc(SCC(=O)N[C@H]2CC[C@@H](Nc3nccc(N(C)C)n3)CC2)n1 [compound 835] | 3 (Class 3 The value of percent of control at 10^−7 M was more than 60% or the value of IC50 was more than 200 nM.) |
| CN(C)c1ccnc(N[C@H]2CC[C@@H](CNC(=O)Cc3ccccc3OC(F)(F)F)CC2)n1 [compound 945] | 1 (Class 1: The value of percent of control at 10^−7 M was less than 40% or the value of IC50 was less than 50 nM.) |
| CN(C)c1nc(N[C@H]2CC[C@@H](CNCc3ccc(Cl)cc3)CC2)nc2c1CCCC2 [compound 1391] | 3 (Class 3 The value of percent of control at 10^−7 M was more than 60% or the value of IC50 was more than 200 nM.) |
| CN(C)c1ccnc(N[C@H]2CC[C@@H](NC(=O)c3ccc([N+](=O)[O-])cc3)CC2)n1 [compound 909, N-(cis-4-{[4-(dimethylamino)pyrimidin-2-yl]amino}cyclohexyl)-4-nitrobenzamide] | 2 (Class 2: The value of percent of control at 10^−7 M was from 40% to 60% or the value of IC′50 was from 50 nM to 200 nM.) |
| CN(C)c1ccnc(N[C@H]2CC[C@@H](NC(=O)c3cc(C(C)(C)C)nn3Cc3ccc(Cl)cc3Cl)CC2)n1 [compound 360, 3-tert-butyl-1-(2,4-dichlorobenzyl)-N-(cis-4-{[4-(dimethylamino)pyrimidin-2-yl]amino}cyclohexyl)-1H-pyrazole-5-carboxamide] | 2 (Class 2: The value of percent of control at 10^−7 M was from 40% to 60% or the value of IC′50 was from 50 nM to 200 nM.) |
| CCCSc1ncccc1C(=O)N[C@H]1CC[C@@H](Nc2nccc(N(C)C)n2)CC1 [compound 302] | 3 (Class 3 The value of percent of control at 10^−7 M was more than 60% or the value of IC50 was more than 200 nM.) |
| CCCSc1ncccc1C(=O)NC[C@H]1CC[C@@H](Nc2nc3c(c(N(C)C)n2)CCCC3)CC1 [compound 646] | 1 (Class 1: The value of percent of control at 10^−7 M was less than 40% or the value of IC50 was less than 50 nM.) |
| CN(C)c1ccnc(N[C@H]2CC[C@@H](NC(=O)c3cccc(C(F)(F)F)c3)CC2)n1 [compound 334, N-(cis-4-{[4-(dimethylamino)pyrimidin-2-yl]amino}cyclohexyl)-3-(trifluoromethyl)benzamide] | 2 (Class 2: The value of percent of control at 10^−7 M was from 40% to 60% or the value of IC′50 was from 50 nM to 200 nM.) |

same assay, conditions: class by percent of control at 10^−7 M or IC50

| Structure (SMILES) | class |
| --- | --- |
| Cc1cnc(N[C@H]2CC[C@@H](NC(=O)c3cc(F)ccc3F)CC2)nc1N(C)C [compound 2902, N-(cis-4-{[4-(dimethylamino)-5-methylpyrimidin-2-yl]amino}cyclohexyl)-2,5-difluorobenzamide] | 1 (Class 1: The value of percent of control at 10^−7 M was less than 40% or the value of IC50 was less than 50 nM.) |
| Cc1cc(N(C)C)nc(N[C@H]2CC[C@@H](CNC(=O)c3ccc(C#N)cc3)CC2)n1 [compound 2761] | 3 (Class 3 The value of percent of control at 10^−7 M was more than 60% or the value of IC50 was more than 200 nM.) |
| COc1cccc([C@H](C)NC(=O)[C@H]2CC[C@@H](Nc3ncc(C)c(N(C)C)n3)CC2)c1 [compound 2776, cis-4-{[4-(dimethylamino)-5-methylpyrimidin-2-yl]amino}-N-[(1S)-1-(3-methoxyphenyl)ethyl]cyclohexanecarboxamide] | 1 (Class 1: The value of percent of control at 10^−7 M was less than 40% or the value of IC50 was less than 50 nM.) |
| Cc1cc(N(C)C)nc(N[C@H]2CC[C@@H](CNC(=O)c3ccc(Cl)c(Cl)c3)CC2)n1 [compound 2767] | 2 (Class 2: The value of percent of control at 10^−7 M was from 40% to 60% or the value of IC′50 was from 50 nM to 200 nM.) |
| Cc1cnc(N[C@H]2CC[C@@H](NC(=O)C[S+]([O-])c3ccc(F)c(F)c3)CC2)nc1N(C)C (relative stereo) [compound 2883, 2-[(3,4-difluorophenyl)sulfinyl]-N-(cis-4-{[4-(dimethylamino)-5-methylpyrimidin-2-yl]amino}cyclohexyl)acetamide] | 2 (Class 2: The value of percent of control at 10^−7 M was from 40% to 60% or the value of IC′50 was from 50 nM to 200 nM.) |
| Cc1cnc(N[C@H]2CC[C@@H](NC(=O)C[S+]([O-])c3ccccc3Cl)CC2)nc1N(C)C (relative stereo) [compound 2881, 2-[(2-chlorophenyl)sulfinyl]-N-(cis-4-{[4-(dimethylamino)-5-methylpyrimidin-2-yl]amino}cyclohexyl)acetamide] | 1 (Class 1: The value of percent of control at 10^−7 M was less than 40% or the value of IC50 was less than 50 nM.) |
